Assay results from patent US7259004B1, “Endophytic streptomycetes from higher plants with biological activity” (Montana State University, priority 2002, dated 2007).

How the values were obtained:
[1] = system: Staphylococcus aureus ATCC 29213; assay: disk diffusion assay; format: cell-based; details: for Disk Diffusion, Staphylococcus aureus 29213: MHA 35° C.
[2] = system: Acinetobacter sp. ATCC 49137; assay: disk diffusion assay; format: cell-based
[3] = system: Micrococcus luteus ATCC 9341; assay: disk diffusion assay; details: kakadumycin B at 10 μg; control antibiotic; MHA 35° C.
[4] = system: Enterococcus faecium ATCC 49624; assay: disk diffusion assay; format: cell-based; details: for Disk Diffusion, Enterococcus faecium 49624: MHA 35° C.
[5] = system: Escherichia coli ATCC 25922; assay: disk diffusion assay; format: cell-based; for diameter of the zone of inhibition, Escherichia coli ATCC 25922: key: R = resistant
[6] = system: Staphylococus aureus (GISA) ATCC 700787; assay: disk diffusion assay; details: A3-5-1 10 micrograms; Chloramphenicol 30 micrograms; MHA 35° C.
[7] = system: Streptococcus pneumoniae ATCC 49619; assay: disk diffusion assay; format: cell-based
[8] = system: Protein synthesis in Bacillus subtilis; assay: macromolecular synthesis whole cell assay, [3H]amino acid mixture incorporation; format: cell-based; details: 1×MIC
[9] = system: DNA synthesis in Bacillus subtilis; assay: macromolecular synthesis whole cell assay, [3H]thymidine incorporation; format: cell-based; details: 1×MIC
[10] = system: Salmonella typhimurium ATCC 13311; assay: disk diffusion assay; details: MHA 35° C.
[11] = system: Neiseseria gonorrhoeae ATCC 49266; assay: disk diffusion assay; details: A3-5-1 10 micrograms; Chloramphenicol 30 micrograms; GCA w/ 1% supplement in 5% CO2
[12] = system: S. maltophilia ATCC 13637; assay: disk diffusion assay; format: cell-based, Stenotrophomas maltophilia; details: for Disk Diffusion, Stenotrophomas maltophilia 13637: MHA 35° C.
[13] = system: Shigella dysenteriae ATCC 11835; assay: disk diffusion assay; format: cell-based; details: for diameter of the zone of inhibition, Shigella dysenteriae ATCC 11835: 10 micrograms per disk, 35° C.
[14] = system: Human Lung Cancer Epithelial A549; assay: CellTiter 96 Aqueous Non-Radioactive Cell Proliferation Assay; format: cell-based; details: 48 hours, Table 7
Description: (§1) The munumbicins were then tested against three human cancer cell lines (ATCC) and human primary mammary epithelial cells (HMECs) (Clonetics; Biowhittaker, Walkersville, Md.) using a CellTiter 96® Aqueous Non-Radioactive Cell Proliferation Assay kit from Promega (Madison, Wis.). The cell lines were A-549 (lung epithelial carcinoma, ATCC CCL-185), ME-180 (cervical epithelial epidermoid carcinoma, ATCC HTB-33), and BT-20 (breast epithelial cancer, ATCC HTB-19), and were grown in the media recommended by ATCC. The primary mammary cells were cultured as recommended by the manufacturer in mammary epithelial cell growth media (MEGM®). […] After seeding, the cells were incubated for five hours at 37° C. before addition of the munumbicins. Two-fold serial dilutions of the munumbicins were made in the culture medium, and a volume equal to that of the seeded cells for each dilution was added to three wells of cells. Each plate also contained some wells with cells plus medium only and some wells with medium only. […] The A-549 and ME-180 cells were incubated for 48 hours. […] The plates were incubated at 37° C. for one to four hours, and the OD490 was determined. The OD reading of all wells was corrected for background by subtracting the reading of wells containing medium only. […] Kakadumycin A was tested against three human cancer cell lines (ATCC) and human primary mammary epithelial cells using the procedure described above for the munumbicins. Kadadumycin B was tested against one human cancer cell line.

[15] = system: Human Cervical Cancer Epithelial ME180; assay: as above; format: cell-based; details: 48 hours, Table 7
Description: as §1

[16] = system: Staphylococcus aureus (GISA) ATCC 700699; assay: disk diffusion assay; details: MHA 35° C.
[17] = system: Enterococcus faecium ATCC 51559; assay: disk diffusion assay; format: cell-based; details: 10 micrograms per disk; ciprofloxacin 5, vancomycin 30 micrograms per disk; 35° C.
[18] = system: Haemophilus influenzae ATCC 49247; assay: disk diffusion assay; details: A3-5-1 10 micrograms; Chloramphenicol 30 micrograms; HTM 35° C. with 5% CO2
[19] = system: Enterococcus faecalis ATCC 29212; assay: disk diffusion assay; format: cell-based; details: for Disk Diffusion, Enterococcus faecalis 29212: MHA 35° C.
B. subtilis 1A757 = assay: microbe, parasite or virus in culture; format: cell-based, Bacillus subtilis
[20] = system: Eschericia coli ATCC 35218; assay: disk diffusion assay; details: A3-5-1 10 micrograms; Chloramphenicol 30 micrograms; MHA 35° C.
[21] = system: Eschericia coli ATCC 10536; assay: disk diffusion assay; details: A3-5-1 10 micrograms; Chloramphenicol 30 micrograms; MHA 35° C.
[22] = system: Enterococcus faecalis ATCC 51299; assay: disk diffusion assay; format: cell-based
[23] = system: Pseudomonas aeruginosa ATCC 27853; assay: disk diffusion assay; format: cell-based; for diameter of the zone of inhibition, Pseudomonas aeruginosa ATCC 27853: key: R = resistant
S. epidermis ATCC 12228 = assay: disk diffusion assay; format: cell-based, Staphylococcus epidermidis; details: for Disk Diffusion, Staphylococcus epidermidis 12228: MHA 35° C.
[24] = system: Neisseria gonnorhea ATCC 49226; assay: disk diffusion assay; format: cell-based; details: 10 micrograms per disk; ciprofloxacin 5, vancomycin 30 micrograms per disk; GC agar with 1% growth supplement with 5% CO2
[25] = system: Candida parasilosis ATCC 22019; assay: disk diffusion assay; format: cell-based, Candida parapsilosis; details: 10 micrograms per disk; 35° C. Note: key: R = resistant.
[26] = system: Candida parasdosis ATCC 90018; assay: disk diffusion assay; format: cell-based, Candida parapsilosis; details: 10 micrograms per disk; 35° C. Note: key: R = resistant.
Cryptococcus neoformans = assay: microbroth dilution MIC
Sclerotinia sclerotiorum = assay: microbroth dilution MIC, plant associated microorganisms; format: cell-based; details: PD broth, 48 hours at 23° C.
Description: (§2) Incubation was for 48 hours at 23° C. A plant pathogenic strain of Pseudomonas syringae was also tested using the same PD broth medium and with concentrations of colony forming units as given above. The organisms were obtained from the Montana State University plant pathogen culture collection administered by Dr. […] The relative activities against plant pathogenic fungi ranged from a few tenths of a microgram up to thirty micrograms. Table 2 provides the results of tests of inhibitory activity of the munumbicins against various plant-pathogenic fungi and one pathogenic bacterium. The data are reported as MIC values in micrograms/ml.

Pythium ultimum = assay: as above; format: cell-based; details: PD broth, 48 hours at 23° C.
Description: as §2

Pseudomonas syringae = assay: as above; format: cell-based; details: PD broth
Description: as §2

Candida krusei ATCC 6258 = assay: disk diffusion assay; format: cell-based; details: 10 micrograms per disk; 35° C.
Aspergillus fumigatus = assay: microbroth dilution MIC
[27] = system: Candida glabrata ATCC 2001; assay: disk diffusion assay; format: cell-based; details: 10 micrograms per disk; 35° C. Note: key: R = resistant.
Bacillus anthracis K8902 = format: cell-based; details: 10 micrograms per disk; ciprofloxacin 5, vancomycin 30 micrograms per disk; 35° C.
[28] = system: Plasmodium falciparum strain CSC-1 (Honduras); assay: antimalarial assay, 3H-phenylalanine radiobioassay in human red blood cells; details: human red blood cells, 3H-phenylalanine; standard deviation of the mean, three experiments
brine shrimp = brine shrimp assays; details: preliminary assays
[29] = system: Human Breast Cancer Epithelial BT-20; assay: CellTiter 96 Aqueous Non-Radioactive Cell Proliferation Assay; format: cell-based; details: 96-144 hours; Table 7
Description: as §1

[30] = system: Human Primary Mammary Epithelial HMEC; assay: as above; format: cell-based; details: 48 hours; Table 7
Description: as §1

[31] = system: Candida albicans ATCC 90028; assay: disk diffusion assay; format: cell-based; details: 10 micrograms per disk; 35° C. Note: key: R = resistant.
[32] = system: Enterococcus faecalis ATCC 51299 (VRE); assay: microbroth dilution MIC; format: cell-based; details: resistant to vancomycin; first listing in Table 4
[33] = system: gram positive bacteria including Staphylococcus species, Streptococcus pneumoniae, Enterococcus species, Bacillus subtilis, and Listeria monocytogenes; assay: activity against Gram positive bacteria (general statements); format: cell-based
Vibrio fischeri PIC 345 = assay: disk diffusion assay; format: cell-based; details: 10 micrograms per disk; ciprofloxacin 5, vancomycin 30 micrograms per disk; 35° C.
[34] = system: Candida tropicalis ATCC 750; assay: disk diffusion assay; format: cell-based; details: 10 micrograms per disk; 35° C. Note: key: R = resistant.
[35] = system: Candida albicans ATCC 24433; assay: disk diffusion assay; format: cell-based; details: 10 micrograms per disk; 35° C. Note: key: R = resistant.
[36] = system: Staphylococcus aureus ATCC 33591 (MRSA); assay: microbroth dilution MIC; format: cell-based; details: methicillin resistant strain; first listing in Table 4
[37] = A3-5-1 10 micrograms, Chloramphenicol 30 micrograms
[38] = kakadumycin B at 10 μg, control antibiotic
[39] = A3-5-1 10 micrograms, Chloramphenicol 30 micrograms, MHA 35° C.
[40] = 10 micrograms per disk, ciprofloxacin 5, vancomycin 30 micrograms per disk, 35° C.

Molecule: O=C(N[C@H](CO)[C@H](O)c1ccc([N+](=O)[O-])cc1)C(Cl)Cl [Chloramphenicol, reference compound]
- Disk Diffusion, Staphylococcus aureus 29213 [1, 37]: 25 mm
- Disk Diffusion, Staphylococcus aureus 29213 [1, 38]: 19 mm
- Disk Diffusion, Acinetobacter spp. 49137 [2, 39]: 8 mm
- Disk Diffusion, Micrococcus luteus 9341 [3]: 29 mm
- diameter of the zone of inhibition, Enterococcus faecium ATCC 49624 [4, 40]: 24 mm
- Disk Diffusion, Enterococcus faecium 49624 [4, 37]: 25 mm
- Disk Diffusion, Enterococcus faecium 49624 [4, 38]: 20 mm
- Disk Diffusion, Eschericia coli 25922 [5, 39]: 29 mm
- Disk Diffusion, Escherichia coli 25922 ([5]; kakadumycin B at 10 μg, control antibiotic, MHA 35° C.): 26 mm
- Disk Diffusion, Staphylococus aureus (GISA) 700787 [6]: 29 mm
- Disk Diffusion, Streptococcus pneumoniae 49619 ([7]; A3-5-1 10 micrograms, Chloramphenicol 30 micrograms, MHA w/5% dsb 35° C. w/5% CO2): 22 mm
- % [3H]amino acid mixture (Protein synthesis) incorporation of that of the untreated culture ([8]; 5 min): 44%
- % [3H]amino acid mixture (Protein synthesis) incorporation of that of the untreated culture ([8]; 10 min): 36%
- % [3H]thymidine (DNA synthesis) incorporation of that of the untreated culture ([9]; 5 min): 58%
- % [3H]thymidine (DNA synthesis) incorporation of that of the untreated culture ([9]; 10 min): 44%
- Disk Diffusion, Salmonella typhimurium 13311 [10, 37]: 28 mm
- Disk Diffusion, Salmonella typhimurium 13311 [10, 38]: 28 mm
- Disk Diffusion, Neiseseria gonorrhoeae 49266 [11]: 33 mm
- Disk Diffusion, Stenotrophomas maltophilia 13637 [12, 37]: 28 mm
- Disk Diffusion, Stenotrophomas maltophilia 13637 [12, 38]: 25 mm
- diameter of the zone of inhibition, Shigella dysenteriae ATCC 11835 [13]: 11 mm
- Disk Diffusion, Shigella dysenteriae 11835 [13, 39]: 40 mm
- IC50 ([14]; Homo sapiens, A549, read-out: IC50 Human Lung Cancer Epithelial A549): > 40 µg/mL
- IC50 ([15]; Homo sapiens, ME-180, read-out: IC50 Human Cervical Cancer Epithelial ME180): > 40 µg/mL
- Disk Diffusion, Staphylococcus aureus (GISA) 700699 [16, 37]: 26 mm
- Disk Diffusion, Staphylococcus aureus (GISA) 700699 [16, 38]: 29 mm
- diameter of the zone of inhibition, Enterococcus faecium ATCC 51559 [17]: 24 mm
- Disk Diffusion, Haemophilus influenzae 49247 [18]: 23 mm
- Disk Diffusion, Enterococcus faecalis 29212 [19, 37]: 20 mm
- Disk Diffusion, Enterococcus faecalis 29212 [19, 38]: 20 mm
- 1×MIC against Bacillus subtilis (B. subtilis 1A757): 4 micrograms/ml
- Disk Diffusion, Eschericia coli 35218 [20]: R
- Disk Diffusion, Eschericia coli 10536 [21]: 28 mm
- Disk Diffusion, Enterococcus faecalis (VRE) 51299 [22, 39]: 8 mm
- Disk Diffusion, Pseudomonas aeruginosa 27853 [23, 39]: R
- Disk Diffusion, Staphylococcus epidermidis 12228 (S. epidermis ATCC 12228; [37]): 30 mm
- Disk Diffusion, Staphylococcus epidermidis 12228 (S. epidermis ATCC 12228; [38]): 31 mm

Molecule: munumbicin A
- diameter of the zone of inhibition, Staphylococcus aureus ATCC 29213 [1, 40]: R
- diameter of the zone of inhibition, Acinetobacter sp. ATCC 49137 ([2]; 10 micrograms per disk, ciprofloxacin 5, vancomycin 30 micrograms per disk, grown at 30° C.): R
- diameter of the zone of inhibition, Neisseria gonnorhea ATCC 49226 [24]: 9 mm
- diameter of the zone of inhibition, Candida parasilosis ATCC 22019 [25]: R
- diameter of the zone of inhibition, Escherichia coli ATCC 25922 ([5]; 10 micrograms per disk, penicillin G 10 units per disk, 35° C.): R
- diameter of the zone of inhibition, Candida parasdosis ATCC 90018 [26]: R
- MIC Cryptococcus neoformans (Cryptococcus neoformans): 10 micrograms/ml
- diameter of the zone of inhibition, Streptococcus pneumoniae ATCC 49619 ([7]; 10 micrograms per disk, ciprofloxacin 5, vancomycin 30 micrograms per disk, MHA with 5% dsb. and 5% CO2): R
- MIC Sclerotinia sclerotiorum (Sclerotinia sclerotiorum): 8.0 micrograms/ml
- MIC Pythium ultimum (Pythium ultimum): 2.0 micrograms/ml
- MIC Pseudomonas syringae (Pseudomonas syringae): 15.6 micrograms/ml
- diameter of the zone of inhibition, Candida krusei ATCC 6258 (Candida krusei ATCC 6258): R
- MIC Aspergillus fumigatus (Aspergillus fumigatus): 20 micrograms/ml
- diameter of the zone of inhibition, Candida glabrata ATCC 2001 [27]: R
- diameter of the zone of inhibition, Bacillus anthracis K8902 (Bacillus anthracis K8902): 9.5 mm
- IC50 Plasmodium falciparum [28]: 0.175 ± 0.106 µg/mL
- diameter of the zone of inhibition, S. maltophilia ATCC 13637 ([12]; 10 micrograms per disk, 35° C.): R
- diameter of the zone of inhibition, Shigella dysenteriae ATCC 11835 [13]: R
- LC50 brine shrimp (brine shrimp): 3.3 micrograms/ml
- IC50 Human Lung Cancer Epithelial A549 [14]: 1 micrograms/ml
- IC50 Human Cervical Cancer Epithelial ME180 [15]: 0.51 micrograms/ml
- IC50 Human Breast Cancer Epithelial BT-20 [29]: 0.19 micrograms/ml
- IC50 Human Primary Mammary Epithelial HMEC [30]: 0.331 micrograms/ml
- diameter of the zone of inhibition, Candida albicans ATCC 90028 [31]: R
- diameter of the zone of inhibition, Enterococcus faecalis ATCC 29212 [19, 40]: R
- MIC Enterococcus faecalis ATCC 51299 [32]: 8 micrograms/ml
- activity against Gram positive bacteria incl. drug resistant strains (in words) [33]: shows activity
- diameter of the zone of inhibition, Vibrio fischeri PIC 345 (Vibrio fischeri PIC 345): R
- diameter of the zone of inhibition, Enterococcus faecalis ATCC 51299 [22, 40]: R
- diameter of the zone of inhibition, Candida tropicalis ATCC 750 [34]: R
- diameter of the zone of inhibition, Candida albicans ATCC 24433 [35]: R
- diameter of the zone of inhibition, Pseudomonas aeruginosa ATCC 27853 [23, 40]: R
- MIC Staphylococcus aureus ATCC 33591 [36]: not active
- diameter of the zone of inhibition, S. epidermis ATCC 12228 (S. epidermis ATCC 12228; 10 micrograms per disk, 35° C.): 9 mm
